Results on 12 molecules are retold here after patent publication US20080045514A1 (Cytovia, Inc., priority 2006, published 2008).

Holding throughout (type): cell-based
Assay [1] concerns human cancer cell line H1299. The assay is described as follows: Caspase cascade activation (EC50), H1299. To be noted: NCI-H1299, H1299 cells, read-out: caspase potency (EC50) H1299. The procedure:
Human breast cancer cell lines T-47D, human hepatocellular carcinoma cell line SNU398, human colon carcinoma cell line HCT116, human cancer cell line H1299, human Burkitt's lymphoma cell line Namalwa, human lymphoma cell line Raji, and human B cell lymphoblastoid cell line Ramos were grown according to media component mixtures designated by American Type Culture Collection+10% FCS (Invitrogen Corporation), in a 5% CO2-95% humidity incubator at 37° C. T-47D and H1299 cells were maintained at a cell density between 50 and 80% confluency at a cell density of 0.1 to 0.6×10^6 cells/mL. Cells were harvested at 600×g and resuspended at 0.65×10^6 cells/mL into appropriate media+10% FCS. An aliquot of 22.5 μL of cells was added to a well of a 384-well microtiter plate containing 2.5 μL of a 10% DMSO in RPMI-1640 media solution containing 0.16 to 100 μM of 3-(2-chlorophenyl)-6-(3,4-methylenedioxyphenyl)-7H-[1,2,4]triazolo[3,4-b][1,3,4]thiadiazine or other test compound (0.016 to 10 μM final). An aliquot of 22.5 μL of cells was added to a well of a 384-well microtiter plate containing 2.5 μL of a 10% DMSO in RPMI-1640 media solution without test compound as the control sample. The samples were mixed by agitation and then incubated at 37° C. for 48 h in a 5% CO2-95% humidity incubator. After incubation, the samples were removed from the incubator and 25 μL of a solution containing 14 μM of N—(Ac-DEVD)-N′-ethoxycarbonyl-R110 (SEQ ID No.:1) fluorogenic substrate (Cytovia, Inc.; WO99/18856), 20% sucrose (Sigma), 20 mM DTT (Sigma), 200 mM NaCl (Sigma), 40 mM Na PIPES buffer pH 7.2 (Sigma), and 500 μg/mL lysolecithin (Calbiochem) was added. The samples were mixed by agitation and incubated at room temperature. Using a fluorescent plate reader (Model SPECTRAfluor Plus, Tecan), an initial reading (T=0) was made approximately 1-2 min after addition of the substrate solution, employing excitation at 485 nm and emission at 530 nm, to determine the background fluorescence of the control sample. After the 3 h incubation, the samples were read for fluorescence as above (T=3 h). Calculation: The Relative Fluorescence Unit values (RFU) were used to calculate the sample readings as follows: RFU(T=3H)−Control RFU(T=0)=Net RFU(T=3h) The activity of caspase cascade activation was determined by the ratio of the net RFU value for 3-(2-chlorophenyl)-6-(3,4-methylenedioxyphenyl)-7H-[1,2,4]triazolo[3,4-b][1,3,4]thiadiazine (Example P) or other test compound to that of control samples. The EC50 (nM) was determined by a sigmoidal dose-response calculation (Prism 3.0, GraphPad Software Inc.).

The test system of assay [2] is human breast cancer cell line T-47D. Description: Caspase cascade activation (EC50), T-47D. To be noted: Homo sapiens; T47D cells; caspase cascade activation; read-out: caspase potency (EC50) T47D. The method, boiled down: (§1)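 Cells at 0.65×10^6 cells/mL exposed to compound at 0.016 to 10 μM final (1% DMSO) for 48 h at 37° C, 5% CO2. Caspase activity then read with 14 μM Ac-DEVD-R110 fluorogenic substrate in lysolecithin/DTT/PIPES pH 7.2 buffer at ex 485/em 530 nm after 3 h at room temperature. EC50 fitted sigmoidally from net RFU ratio to control.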

In assay [3] the test system is human colon carcinoma cell line HCT116. Description: Caspase cascade activation (EC50), HCT116. To be noted: Homo sapiens, HCT-116; HCT116 cells; caspase cascade activation; read-out: caspase potency (EC50) HCT116. The method, boiled down:
as §1

Assay [4] has as its system human hepatocellular carcinoma cell line SNU398. The assay is described as follows: Caspase cascade activation (EC50), SNU398. To be noted: Homo sapiens, SNU-398; SNU398 cells; caspase cascade activation; read-out: caspase potency (EC50) SNU398. The procedure, abridged: as §1

Turning to `COc1ccc(C2=Nn3c(nnc3-c3ccc(Cl)cc3)SC2)cc1OC` [E, 3-(4-Chlorophenyl)-6-(3,4-dimethoxyphenyl)-7H-[1,2,4]triazolo[3,4-b][1,3,4]thiadiazine], the figures for the half-maximal effective concentration (EC50) in assay [1] and in assay [2] were 2.1 µM and 1.88 µM, respectively.
Regarding `CCOc1cccc(-c2nnc3n2N=C(c2ccc(OC)cc2)CS3)c1` [Example D1, 3-(3-Ethoxyphenyl)-6-(4-methoxyphenyl)-7H-[1,2,4]triazolo[3,4-b][1,3,4]thiadiazine], the 50% effective concentration (EC50) in assay [3] came out at 1.5 µM; in assay [1], 2.71 µM; in assay [2], 2.3 µM; in assay [4] it was 0.778 µM.
For `CCOc1ccc(C2=Nn3c(nnc3-c3ccc(OC)cc3)SC2)cc1` [I, 3-(4-Methoxyphenyl)-6-(4-ethoxyphenyl)-7H-[1,2,4]triazolo[3,4-b][1,3,4]thiadiazine] the same measures were 1.58 µM, 1.82 µM, 2.49 µM and 1.01 µM.
For `COc1ccc(C2=Nn3c(nnc3-c3ccc(C)cc3)SC2)cc1OC` [A, 3-(4-Methylphenyl)-6-(3,4-dimethoxyphenyl)-7H-[1,2,4]triazolo[3,4-b][1,3,4]thiadiazine], the EC50 was determined as 2.73 µM in assay [1] and 2.43 µM in assay [2].
On to `COc1cccc(-c2nnc3n2N=C(c2ccc4ccccc4c2)CS3)c1` [Example B1, 3-(3-Methoxyphenyl)-6-(2-naphthyl)-7H-[1,2,4]triazolo[3,4-b][1,3,4]thiadiazine], for which the concentration giving a half-maximal response (EC50) in assay [3] came to 1.31 µM; in assay [1], 1.71 µM; in assay [2], 1.42 µM; in assay [4] it was 0.93 µM.
The like results for `CCOc1ccc(C2=Nn3c(nnc3-c3ccc(Cl)cc3Cl)SC2)cc1` [Example H1, 3-(2,4-Dichlorophenyl)-6-(4-ethoxyphenyl)-7H-[1,2,4]triazolo[3,4-b][1,3,4]thiadiazine] were, in that order, 0.161 µM, 2.01 µM, 0.553 µM and 0.041 µM.
Turning to `Clc1ccc(-c2nnc3n2N=C(c2ccccc2)CS3)c(Cl)c1` [Example J1, 3-(2,4-Dichlorophenyl)-6-phenyl-7H-[1,2,4]triazolo[3,4-b][1,3,4]thiadiazine], the EC50 in assay [1] came to 2.59 µM; in assay [2], 2.87 µM.
Take `CCOc1ccc(C2=Nn3c(nnc3-c3cccc(OC)c3)SC2)cc1` [Z, 3-(3-Methoxyphenyl)-6-(4-ethoxyphenyl)-7H-[1,2,4]triazolo[3,4-b][1,3,4]thiadiazine]: the EC50 in assay [3] turned out to be 0.693 µM; in assay [1], 2.33 µM; in assay [2], 2.81 µM; in assay [4], 0.331 µM.
Regarding `Clc1ccccc1-c1nnc2n1N=C(c1ccc(Br)cc1)CS2` [Q, 3-(2-Chlorophenyl)-6-(4-bromophenyl)-7H-[1,2,4]triazolo[3,4-b][1,3,4]thiadiazine], the EC50 in assay [1] worked out at 5.14 µM; in assay [2], 5.35 µM.
As for `Cc1cccc(-c2nnc3n2N=C(c2ccc4ccccc4c2)CS3)c1` [U, 3-(3-Methylphenyl)-6-(2-naphthyl)-7H-[1,2,4]triazolo[3,4-b][1,3,4]thiadiazine], the results for the EC50 in assay [1] and in assay [2] were 3.57 µM and 5.54 µM, respectively.
As for `CCOc1ccc(C2=Nn3c(nnc3-c3ccccc3Cl)SC2)cc1` [O, 3-(2-Chlorophenyl)-6-(4-ethoxyphenyl)-7H-[1,2,4]triazolo[3,4-b][1,3,4]thiadiazine], the concentration giving a half-maximal response (EC50) in assay [3] was found to be 0.279 µM; in assay [1], 1.01 µM; in assay [2], 1.33 µM; in assay [4], 0.129 µM.
With `CCOc1ccc(-c2nnc3n2N=C(c2ccc(O)c(O)c2)CS3)cc1` [Example F1, 3-(4-Ethoxyphenyl)-6-(3,4-dihydroxyphenyl)-7H-[1,2,4]triazolo[3,4-b][1,3,4]thiadiazine], the EC50 in assay [1] is 2.65 µM; in assay [2], 2.58 µM.
